Test results: article PMC7469689, “Substituted 4,5′-Bithiazoles as Catalytic Inhibitors of Human DNA Topoisomerase IIα” (Journal of Chemical Information and Modeling, 2020)
Read-outs that look alike come from different tables or passages of the source.

Columns and labels:
human topo IIα [1] = molecular target: T1, human topo IIα (Homo sapiens, UniProt P11388); experiment: Human topoisomerase II competitive ATPase assay; type: biochemical
T1 construct: purchased Inspiralis (Norwich, U.K.)
Method: The human topo competitive ATPase assay was executed at Inspiralis (Norwich, U.K.). The compound was analyzed using a kinase/lactate dehydrogenase assay as described above.
A mixture of the assay buffer (20 mM Tris–HCl, 5 mM magnesium acetate, 125 mM potassium acetate, 2 mM DTT, pH 7.9), linear pBR322 (1.5 μL of 1 mg/mL per assay), phosphoenol pyruvate (0.5 μL of 80 mM per assay), pyruvate kinase/lactate dehydrogenase mix (0.75 μL per assay), NADH (1 μL of 20 mM per assay), DMSO (1.5 μL per assay), and water (32.85 μL per assay) was prepared. This mixture (41.1 μL) was put into the wells of a 384-well microtiter plate. DMSO (0.5 μL) or the diluted investigated compound in the DMSO was added to the wells and mixed. Subsequently, 5 μL of the dilution buffer or human topo IIα (12 nM final concentration) was added and mixed. Before the run, a prerun was done where we added 3.4 μL of the appropriate concentration of ATP and monitored the OD340 for up to 35 min. The assay temperature was 37 °C. Two negative controls (4% DMSO and dilution buffer without enzyme) were used in the presence of 2 mM ATP. The ATP concentrations in this assay were 0.025, 0.05, 0.075, 0.1, 0.25, 0.5, 0.75, and 1 mM. The assays were executed in duplicate at 3.9, 31, 50, 75, and 100 μM final concentrations of the investigated compound 1. DMSO has a final concentration of 4% (v/v) in all of the reactions.
8. Human topoisomerase II ATPase assays at different concentration of the ATP – Competitive ATPase assay
The spectrophotometer produces an output as change in OD340 with time (data not shown).
The data from the runs after the addition of the ATP were plotted after adjusting the starting OD340 to zero. Lines are fitted to these by linear regression and the rates (OD change/min) calculated. The rates for each ATP and inhibitor concentration were then calculated as μM ATP hydrolysed/min using an extinction coefficient of 6.22 M-1 cm-1 and a path length of 0.5 cm. The rates were then plotted against the ATP concentration and curves fitted to the data using the hyperbolic equation y=(ax/(b+x) where y = rate, x = [ATP], a = Vmax and b=Km.
Using the equation y=y0+(ax/(b+x)) it was possible to solve it and obtain values. […]
concentrations after subtraction of the background rate and calculated Km (mM ATP) and Vmax (μM ATP/min) values. They were calculated from equation y = (ax /(b+x) where y = rate, x = [ATP], a = Vmax.
Rates for controls without enzyme in the presence of 2 mM ATP (μmol/min) […]
Rates (μmol/min) at different ATP concentrations (mM) after subtraction of background […]
Calculated Km (mM ATP) and Vmax (μM ATP/min) values

human topo IIα [2] = molecular target: T1, human topo IIα; experiment: Human topo IIα-mediated kDNA decatenation assay; type: biochemical
Method: We made use of the human topo II decatenation assay kit from Inspiralis (Norwich, U.K.) to assess the ability of selected compounds to impede DNA decatenation.[89],[90] It was performed for topo IIα and topo IIβ isoforms using the protocol as described previously.[35]

T1 sequence (P11388 whole entry): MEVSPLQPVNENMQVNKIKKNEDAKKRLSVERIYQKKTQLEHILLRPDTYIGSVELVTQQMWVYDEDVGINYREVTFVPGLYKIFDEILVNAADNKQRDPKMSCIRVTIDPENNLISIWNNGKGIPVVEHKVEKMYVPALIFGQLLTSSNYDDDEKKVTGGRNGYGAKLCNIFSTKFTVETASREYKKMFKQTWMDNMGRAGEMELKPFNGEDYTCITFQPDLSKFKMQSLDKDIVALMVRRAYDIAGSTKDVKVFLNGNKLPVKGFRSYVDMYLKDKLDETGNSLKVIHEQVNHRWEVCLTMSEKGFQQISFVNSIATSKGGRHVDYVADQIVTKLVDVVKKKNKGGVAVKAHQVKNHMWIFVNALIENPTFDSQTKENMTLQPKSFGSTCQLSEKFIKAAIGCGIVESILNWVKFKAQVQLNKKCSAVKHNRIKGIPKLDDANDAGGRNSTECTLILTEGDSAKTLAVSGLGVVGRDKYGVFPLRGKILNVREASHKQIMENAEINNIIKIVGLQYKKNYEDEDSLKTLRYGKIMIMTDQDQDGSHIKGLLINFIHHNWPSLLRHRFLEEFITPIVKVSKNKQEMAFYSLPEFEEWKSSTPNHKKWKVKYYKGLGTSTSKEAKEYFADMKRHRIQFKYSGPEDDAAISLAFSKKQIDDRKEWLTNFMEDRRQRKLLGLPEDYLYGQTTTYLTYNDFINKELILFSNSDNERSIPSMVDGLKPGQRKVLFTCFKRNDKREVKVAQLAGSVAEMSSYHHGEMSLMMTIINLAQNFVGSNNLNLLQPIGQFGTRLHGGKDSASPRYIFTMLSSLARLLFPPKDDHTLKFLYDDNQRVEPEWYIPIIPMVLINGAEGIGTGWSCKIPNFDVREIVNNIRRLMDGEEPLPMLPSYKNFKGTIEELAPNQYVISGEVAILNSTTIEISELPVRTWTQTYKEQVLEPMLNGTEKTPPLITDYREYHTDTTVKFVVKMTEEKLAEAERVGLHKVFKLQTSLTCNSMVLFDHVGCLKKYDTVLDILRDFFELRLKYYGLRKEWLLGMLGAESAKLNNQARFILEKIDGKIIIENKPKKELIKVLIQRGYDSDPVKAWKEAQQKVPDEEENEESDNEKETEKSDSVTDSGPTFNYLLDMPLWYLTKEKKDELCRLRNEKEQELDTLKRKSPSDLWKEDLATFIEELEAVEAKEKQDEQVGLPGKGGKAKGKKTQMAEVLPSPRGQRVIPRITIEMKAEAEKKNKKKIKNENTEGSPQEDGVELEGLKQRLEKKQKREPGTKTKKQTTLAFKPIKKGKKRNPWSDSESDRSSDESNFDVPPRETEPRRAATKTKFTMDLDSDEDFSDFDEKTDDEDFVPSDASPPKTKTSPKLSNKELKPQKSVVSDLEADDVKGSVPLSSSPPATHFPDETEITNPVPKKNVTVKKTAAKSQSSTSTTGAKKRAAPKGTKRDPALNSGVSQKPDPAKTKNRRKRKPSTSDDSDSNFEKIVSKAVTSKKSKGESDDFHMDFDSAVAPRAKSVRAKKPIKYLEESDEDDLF

## Cc1nc(N)sc1-c1csc(Nc2ccc(C(F)(F)F)cc2)n1 [Compound 1]
Human topo IIα [1]; ATP 0.025 (mM per method), fit R^2 0.474, read-out: IC50 at c(ATP) 0.025
  IC50: 0.0038 mM
Human topo IIα [1]; ATP 0.05 (mM per method), read-out: IC50 at c(ATP) 0.05
  IC50: 0.0088 mM
Human topo IIα [1]; ATP 0.075 (mM per method), read-out: IC50 at c(ATP) 0.075
  IC50: 0.0148 mM
Human topo IIα [1]; ATP 0.1 (mM per method), read-out: IC50 at c(ATP) 0.1
  IC50: 0.0094 mM
Human topo IIα [1]; ATP 0.25 (mM per method), read-out: IC50 at c(ATP) 0.25
  IC50: 0.0183 mM
Human topo IIα [1]; ATP 0.5 (mM per method), read-out: IC50 at c(ATP) 0.5
  IC50: 0.0152 mM
Human topo IIα [1]; ATP 0.75 (mM per method), read-out: IC50 at c(ATP) 0.75
  IC50: 0.0178 mM
Human topo IIα [1]; ATP 1 (mM per method), read-out: IC50 at c(ATP) 1
  IC50: 0.0216 mM
Human topo IIα [1]; ATP 2 (mM per method), read-out: IC50 at c(ATP) 2
  IC50: 0.0254 mM
Human topo IIα [1]; compound 3.9 μM
  Calculated Vmax: 2.97 μM ATP/min
Human topo IIα [1]; compound 3.9 μM, ATP 0.025 mM
  Rate of ATP hydrolysis after subtraction of background: 0.064 µmol/min
Human topo IIα [1]; compound 3.9 μM, ATP 0.05 mM
  Rate of ATP hydrolysis after subtraction of background: 0.257 µmol/min
Human topo IIα [1]; compound 3.9 μM, ATP 0.075 mM
  Rate of ATP hydrolysis after subtraction of background: 0.354 µmol/min
Human topo IIα [1]; compound 3.9 μM, ATP 0.1 mM
  Rate of ATP hydrolysis after subtraction of background: 0.450 µmol/min
Human topo IIα [1]; compound 3.9 μM, ATP 0.25 mM
  Rate of ATP hydrolysis after subtraction of background: 1.158 µmol/min
Human topo IIα [1]; compound 3.9 μM, ATP 0.5 mM
  Rate of ATP hydrolysis after subtraction of background: 1.479 µmol/min
Human topo IIα [1]; compound 3.9 μM, ATP 0.75 mM
  Rate of ATP hydrolysis after subtraction of background: 1.801 µmol/min
Human topo IIα [1]; compound 3.9 μM, ATP 1 mM
  Rate of ATP hydrolysis after subtraction of background: 1.897 µmol/min
Human topo IIα [1]; compound 3.9 μM, ATP 2 mM
  Rate of ATP hydrolysis after subtraction of background: 2.444 µmol/min
Human topo IIα [1]; compound 31 μM
  Calculated Vmax: 1.9 μM ATP/min
Human topo IIα [1]; compound 31 μM, ATP 0.05 mM
  Rate of ATP hydrolysis after subtraction of background: 0.032 µmol/min
Human topo IIα [1]; compound 31 μM, ATP 0.075 mM
  Rate of ATP hydrolysis after subtraction of background: 0.096 µmol/min
Human topo IIα [1]; compound 31 μM, ATP 0.1 mM
  Rate of ATP hydrolysis after subtraction of background: 0.161 µmol/min
Human topo IIα [1]; compound 31 μM, ATP 0.25 mM
  Rate of ATP hydrolysis after subtraction of background: 0.450 µmol/min
Human topo IIα [1]; compound 31 μM, ATP 0.5 mM
  Rate of ATP hydrolysis after subtraction of background: 0.707 µmol/min
Human topo IIα [1]; compound 31 μM, ATP 0.75 mM
  Rate of ATP hydrolysis after subtraction of background: 0.868 µmol/min
Human topo IIα [1]; compound 31 μM, ATP 1 mM
  Rate of ATP hydrolysis after subtraction of background: 1.061 µmol/min
Human topo IIα [1]; compound 31 μM, ATP 2 mM
  Rate of ATP hydrolysis after subtraction of background: 1.286 µmol/min
Human topo IIα [1]; compound 50 μM
  Calculated Vmax: 2.77 μM ATP/min
Human topo IIα [1]; compound 50 μM, ATP 0.025 mM
  Rate of ATP hydrolysis after subtraction of background: 0.000 µmol/min
Human topo IIα [1]; compound 50 μM, ATP 0.05 mM
  Rate of ATP hydrolysis after subtraction of background: 0.096 µmol/min
Human topo IIα [1]; compound 50 μM, ATP 0.075 mM
  Rate of ATP hydrolysis after subtraction of background: 0.129 µmol/min
Human topo IIα [1]; compound 50 μM, ATP 0.1 mM
  Rate of ATP hydrolysis after subtraction of background: 0.032 µmol/min
Human topo IIα [1]; compound 50 μM, ATP 0.25 mM
  Rate of ATP hydrolysis after subtraction of background: 0.193 µmol/min
Human topo IIα [1]; compound 50 μM, ATP 0.5 mM
  Rate of ATP hydrolysis after subtraction of background: 0.450 µmol/min
Human topo IIα [1]; compound 50 μM, ATP 0.75 mM
  Rate of ATP hydrolysis after subtraction of background: 0.707 µmol/min
Human topo IIα [1]; compound 50 μM, ATP 1 mM
  Rate of ATP hydrolysis after subtraction of background: 0.772 µmol/min
Human topo IIα [1]; compound 50 μM, ATP 2 mM
  Rate of ATP hydrolysis after subtraction of background: 1.222 µmol/min
Human topo IIα [1]; compound 75 μM
  Calculated Vmax: 1.94 μM ATP/min
Human topo IIα [1]; compound 75 μM, ATP 0.025 mM
  Rate of ATP hydrolysis after subtraction of background: 0.096 µmol/min
Human topo IIα [1]; compound 75 μM, ATP 0.05 mM
  Rate of ATP hydrolysis after subtraction of background: 0.032 µmol/min
Human topo IIα [1]; compound 75 μM, ATP 0.1 mM
  Rate of ATP hydrolysis after subtraction of background: 0.064 µmol/min
Human topo IIα [1]; compound 75 μM, ATP 0.25 mM
  Rate of ATP hydrolysis after subtraction of background: 0.225 µmol/min
Human topo IIα [1]; compound 75 μM, ATP 0.5 mM
  Rate of ATP hydrolysis after subtraction of background: 0.322 µmol/min
Human topo IIα [1]; compound 75 μM, ATP 0.75 mM
  Rate of ATP hydrolysis after subtraction of background: 0.386 µmol/min
Human topo IIα [1]; compound 75 μM, ATP 1 mM
  Rate of ATP hydrolysis after subtraction of background: 0.354 µmol/min
Human topo IIα [1]; compound 75 μM, ATP 2 mM
  Rate of ATP hydrolysis after subtraction of background: 0.740 µmol/min
Human topo IIα [1]; compound 100 μM
  Calculated Vmax: 3.07 μM ATP/min
Human topo IIα [1]; compound 100 μM, ATP 0.025 mM
  Rate of ATP hydrolysis after subtraction of background: 0.064 µmol/min
Human topo IIα [1]; compound 100 μM, ATP 0.05 mM
  Rate of ATP hydrolysis after subtraction of background: 0.032 µmol/min
Human topo IIα [1]; compound 100 μM, ATP 0.075 mM
  Rate of ATP hydrolysis after subtraction of background: 0.000 µmol/min
Human topo IIα [1]; compound 100 μM, ATP 0.1 mM
  Rate of ATP hydrolysis after subtraction of background: 0.032 µmol/min
Human topo IIα [1]; compound 100 μM, ATP 0.25 mM
  Rate of ATP hydrolysis after subtraction of background: 0.064 µmol/min
Human topo IIα [1]; compound 100 μM, ATP 0.5 mM
  Rate of ATP hydrolysis after subtraction of background: 0.418 µmol/min
Human topo IIα [1]; compound 100 μM, ATP 0.75 mM
  Rate of ATP hydrolysis after subtraction of background: 0.289 µmol/min
Human topo IIα [1]; compound 100 μM, ATP 1 mM
  Rate of ATP hydrolysis after subtraction of background: 0.354 µmol/min
Human topo IIα [1]; compound 100 μM, ATP 2 mM
  Rate of ATP hydrolysis after subtraction of background: 0.772 µmol/min
Human topo IIα [2]; 31.5 μM
  % Decatenated Average: 80.9%
Human topo IIα [2]; 125 μM
  inhibition of decatenation: complete inhibition
Human topo IIα [2]; 500 μM
  inhibition of decatenation: complete inhibition
